Source: PMC8064294 (Journal of medicinal chemistry, 2020)
One block for each compound: values may come before it.

Tests used:
[1] = mice, stated as noted previously, no data shown, cited from earlier work
[2] = target: T1, recombinant human ULK1 protein (1-649) (Homo sapiens, UniProt O75385); assay: ULK1 ADP-Glo kinase assay; format: biochemical; conditions: for ULK1 ADP-Glo potency compared with compound 3: in words
T1 sequence (O75385 1-649): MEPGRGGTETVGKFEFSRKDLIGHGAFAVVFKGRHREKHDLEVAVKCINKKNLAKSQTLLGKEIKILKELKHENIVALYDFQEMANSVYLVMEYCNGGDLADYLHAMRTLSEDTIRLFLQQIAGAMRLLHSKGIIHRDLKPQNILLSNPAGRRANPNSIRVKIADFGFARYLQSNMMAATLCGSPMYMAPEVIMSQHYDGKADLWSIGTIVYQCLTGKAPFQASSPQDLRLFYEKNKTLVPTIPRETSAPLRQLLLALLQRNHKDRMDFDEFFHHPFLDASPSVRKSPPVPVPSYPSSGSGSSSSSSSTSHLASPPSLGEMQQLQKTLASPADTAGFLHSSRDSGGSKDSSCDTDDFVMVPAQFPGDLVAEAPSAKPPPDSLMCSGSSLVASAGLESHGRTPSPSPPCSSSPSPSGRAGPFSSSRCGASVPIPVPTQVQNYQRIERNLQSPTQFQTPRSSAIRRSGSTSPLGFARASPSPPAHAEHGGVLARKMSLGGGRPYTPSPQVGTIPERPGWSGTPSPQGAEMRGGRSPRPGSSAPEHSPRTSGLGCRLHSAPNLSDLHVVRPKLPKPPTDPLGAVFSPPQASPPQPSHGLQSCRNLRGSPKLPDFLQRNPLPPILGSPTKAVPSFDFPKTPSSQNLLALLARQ

[3] = Kinetic solubility; format: physicochemical
[4] = target: T2, ULK1 (NanoLuc-ULK1 fusion) (Homo sapiens, UniProt O75385); assay: ULK1 NanoBRET intracellular kinase target engagement assay in HEK293T cells; format: cell-based; conditions: HEK293T live cells
T2 sequence (O75385 1-1050): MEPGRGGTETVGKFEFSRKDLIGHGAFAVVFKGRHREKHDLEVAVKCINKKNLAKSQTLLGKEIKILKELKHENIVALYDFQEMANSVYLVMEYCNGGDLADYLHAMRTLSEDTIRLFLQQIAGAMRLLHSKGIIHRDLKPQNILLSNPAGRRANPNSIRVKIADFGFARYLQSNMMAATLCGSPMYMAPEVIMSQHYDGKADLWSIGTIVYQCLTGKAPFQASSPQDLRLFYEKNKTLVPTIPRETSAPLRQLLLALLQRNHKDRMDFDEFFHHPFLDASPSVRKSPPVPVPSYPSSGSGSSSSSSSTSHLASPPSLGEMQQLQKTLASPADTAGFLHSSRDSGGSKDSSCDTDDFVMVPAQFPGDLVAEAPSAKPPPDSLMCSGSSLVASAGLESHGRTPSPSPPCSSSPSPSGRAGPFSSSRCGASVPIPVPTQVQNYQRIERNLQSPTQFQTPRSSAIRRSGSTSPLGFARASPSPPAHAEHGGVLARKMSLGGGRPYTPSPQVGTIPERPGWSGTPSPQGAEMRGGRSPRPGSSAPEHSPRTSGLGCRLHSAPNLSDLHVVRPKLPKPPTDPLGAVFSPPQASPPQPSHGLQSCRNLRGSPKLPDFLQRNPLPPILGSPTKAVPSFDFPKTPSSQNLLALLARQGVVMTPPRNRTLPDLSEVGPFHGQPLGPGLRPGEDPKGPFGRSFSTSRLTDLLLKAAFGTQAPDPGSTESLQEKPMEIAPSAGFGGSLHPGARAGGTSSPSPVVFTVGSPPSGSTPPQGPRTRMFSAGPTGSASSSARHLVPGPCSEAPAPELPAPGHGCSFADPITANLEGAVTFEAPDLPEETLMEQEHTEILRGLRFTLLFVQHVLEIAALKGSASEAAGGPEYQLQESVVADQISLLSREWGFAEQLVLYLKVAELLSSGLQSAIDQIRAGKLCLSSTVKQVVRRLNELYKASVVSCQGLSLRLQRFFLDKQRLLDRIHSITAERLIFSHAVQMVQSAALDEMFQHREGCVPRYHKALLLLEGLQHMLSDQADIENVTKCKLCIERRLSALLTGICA

[5] = tested on: autophagic flux in MDA-MB-468 cells expressing mCherry-EGFP-LC3; assay: mCherry-GFP-LC3 FACS autophagic flux assay; format: cell-based, human; conditions: 48 h
[6] = PK study in mice, plasma concentration by LC-MS/MS; conditions: single oral dose 30 mg/kg
[7] = tested on: MDA-MB-468 cells; assay: Combination dose-response matrix with PARP inhibitors, Combenefit Loewe model; format: cell-based, human; conditions: combination with niraparib; synergy at 26 0.19–1.7 μM and niraparib 3.8–7.5 μM
[8] = tested on: autophagosomes in MDA-MB-468 cells; assay: TEM imaging of autophagosomes; format: cell-based, human; conditions: EBSS starved cells, 10 μM
[9] = tested on: pATG13 (Ser318), ATG13 and ULK1 in liver lysates; assay: PD study, in vivo target engagement in mouse liver; conditions: mice, 10 mg/kg oral gavage, 2 h post dosing

- ULK1 ADP-Glo potency compared with compound 3 [2]: approximately equipotent with 3
SMILES: FC(F)(F)c1cnc(Nc2ccc3[nH]ccc3c2)nc1NC1CC1 [compound 8, N^4-Cyclopropyl-N^2-(1H-indol-5-yl)-5-(trifluoromethyl)-pyrimidine-2,4-diamine]

- fold more potent than compound 3 in ULK1 ADP-Glo [2]: about 4 fold
SMILES: FC(F)(F)c1cnc(Nc2ccc3nn[nH]c3c2)nc1NC1CC1 [compound 10, N^2-(1 H-Benzo[d][1,2,3]triazol-6-yl)-N^4-cyclopropyl-5-(trifluoromethyl)pyrimidine-2,4-diamine]

- ULK1 ADP-Glo potency compared with compound 3 [2]: approximately equipotent with 3
- solubility in PBS (in words) [3]: limited solubility
SMILES: FC(F)(F)c1cnc(Nc2cnc3[nH]ccc3c2)nc1NC1CC1 [compound 11, N^4-Cyclopropyl-N^2-(1H-pyrrolo[2,3-b]pyridin-5-yl)-5-(trifluoromethyl)pyrimidine-2,4-diamine]

- ULK1 ADP-Glo potency compared with compound 3 [2]: approximately equipotent with 3
SMILES: FC(F)(F)c1cnc(Nc2ccc3ncoc3c2)nc1NC1CC1 [compound 15, N^2-(Benzo[d]oxazol-6-yl)-N^4-cyclopropyl-5-(trifluoromethyl)pyrimidine-2,4-diamine]

- ULK1 NanoBRET IC50 (range in words) [4]: sub-micromolar range
SMILES: FC(F)(F)c1cnc(Nc2ccc3ncccc3c2)nc1NC1CC1 [compound 16, N^4-Cyclopropyl-N^2-(quinolin-6-yl)-5-(trifluoromethyl)-pyrimidine-2,4-diamine]

- ULK1 NanoBRET IC50 (range in words) [4]: sub-micromolar range
SMILES: Nc1ccc(Nc2ncc(C(F)(F)F)c(NC3CC3)n2)cc1 [compound 23, N^2-(4-Aminophenyl)-N^4-cyclopropyl-5-(trifluoro-methyl)-pyrimidine-2,4-diamine]

More lines, now with the values behind:

SMILES: CNC(=O)c1ccccc1Oc1nc(Nc2cc(OC)c(OC)c(OC)c2)ncc1Br [compound 1]
- systemic exposure ([1]; ip dosing): poor systemic exposure
- oral bioavailability [1]: no measurable oral bioavailability

SMILES: O=C1CCCc2cc(Nc3ncc(C(F)(F)F)c(NC4CC4)n3)ccc21 [compound 19, 6-((4-(Cyclopropylamino)-5-(trifluoromethyl)pyrimidin-2-yl)amino)-3,4-dihydronaphthalen-1(2H)-one]
- solubility in PBS (in words) [3]: limited solubility

SMILES: COc1ccc(Nc2ncc(C(F)(F)F)c(NC3CC3)n2)cc1OC [compound 26, N^4-Cyclopropyl-N^2-(3,4-dimethoxyphenyl)-5-(trifluoromethyl)pyrimidine-2,4-diamine]
- effect on olaparib-induced increase in autophagic flux ([5]; 10 μM with olaparib 30 μM): significantly suppressed the olaparib-induced increase in autophagic flux to a level similar to that observed in untreated control cells
- ULK1 NanoBRET IC50 (range in words) [4]: sub-micromolar range
- Cmax relative to ULK1 NanoBRET IC50 [6]: about 3 fold
- maximum synergy score (Loewe) [7]: 26
- number of autophagosomes by TEM [8]: decreased the number of autophagosomes to a greater extent than SBI-0206965
- effect on pATG13 (Ser318) in liver [9]: robust inhibition of pATG13 (Ser318)
- effect on total ATG13 and ULK1 levels in liver [9]: downregulation of total ATG13 and ULK1 levels

SMILES: O=C(c1cc(Cc2n[nH]c(=O)c3ccccc23)ccc1F)N1CCN(C(=O)C2CC2)CC1 [olaparib, reference compound]
- increase in autophagic flux compared with control cells ([5]; 30 μM): approximately 30%
